Reference: ChEMBL document CHEMBL4507316 (2021)
Calls of active or inactive are those of the source. The calls are words filed in the database; no cut-off is given here.

Tests used:
[1] = target: Mitogen-activated protein kinase 11 (Homo sapiens, UniProt Q15759); test: NanoBRET (MAPK11)
[2] = system: Platelet-derived growth factor receptor alpha (Homo sapiens), P16234 [V561D]; test: PDGFR-alpha V561D ProQinase selectivity panel; settings: Compound concentration 1.0 uM
[3] = target: Macrophage colony-stimulating factor 1 receptor (Homo sapiens) (UniProt P07333); test: CSF1-R ProQinase selectivity panel; settings: Compound concentration 1.0 uM
[4] = target: Receptor tyrosine-protein kinase erbB-2 (Homo sapiens) (UniProt P04626); test: ERBB2 ProQinase selectivity panel; settings: Compound concentration 1.0 uM
[5] = target: Interleukin-1 receptor-associated kinase 4 (Homo sapiens) (UniProt Q9NWZ3); test: IRAK4 ProQinase selectivity panel; settings: Compound concentration 1.0 uM
[6] = target: Proto-oncogene tyrosine-protein kinase receptor Ret (Homo sapiens) (UniProt P07949); test: RET wt ProQinase selectivity panel; settings: Compound concentration 1.0 uM
[7] = target: cGMP-dependent protein kinase 2 (Homo sapiens) (UniProt Q13237); test: PRKG2 ProQinase selectivity panel; settings: Compound concentration 1.0 uM
[8] = target: NUAK family SNF1-like kinase 2 (Homo sapiens) (UniProt Q9H093); test: SNARK ProQinase selectivity panel; settings: Compound concentration 1.0 uM
[9] = target: Serine/threonine-protein kinase Nek4 (Homo sapiens) (UniProt P51957); test: NEK4 ProQinase selectivity panel; settings: Compound concentration 1.0 uM
[10] = target: MAP kinase-activated protein kinase 2 (Homo sapiens) (UniProt P49137); test: MAPKAPK2 ProQinase selectivity panel; settings: Compound concentration 1.0 uM
[11] = target: 5-hydroxytryptamine receptor 2A (Homo sapiens, UniProt P28223); test: GPCRScan assay: inhibition of 5-HT2A; design: radioligand conc. used [nm] 1.2 – 2.4, parental cells HEKT
[12] = target: CDK8/Cyclin C (Homo sapiens) (UniProt P49336+P24863); test: CDK8/CycC ProQinase selectivity panel; type: protein-complex assay; settings: Compound concentration 1.0 uM
[13] = target: Tyrosine-protein kinase Fgr (Homo sapiens) (UniProt P09769); test: FGR ProQinase selectivity panel; settings: Compound concentration 1.0 uM
[14] = target: Inhibitor of nuclear factor kappa-B kinase subunit epsilon (Homo sapiens) (UniProt Q14164); test: IKK-epsilon ProQinase selectivity panel; settings: Compound concentration 1.0 uM
[15] = target: GABA-A receptor; anion channel (Rattus norvegicus) (UniProt O09028+P15431+P18506+P18508+P19969+P20236+P23574+P23576+P28471+P28473+P30191+P62813+P63079+P63138+Q91ZM7+Q9ES14); settings: Compound concentration 10.0 uM
[16] = target: Calcium/calmodulin-dependent protein kinase type IV (Homo sapiens) (UniProt Q16566); test: CAMK4 ProQinase selectivity panel; settings: Compound concentration 1.0 uM
[17] = target: Serine/threonine-protein kinase PAK 1 (Homo sapiens) (UniProt Q13153); test: PAK1 ProQinase selectivity panel; settings: Compound concentration 1.0 uM
[18] = target: Insulin receptor (Homo sapiens) (UniProt P06213); test: INS-R ProQinase selectivity panel; settings: Compound concentration 1.0 uM
[19] = target: Inhibitor of nuclear factor kappa-B kinase subunit alpha (Homo sapiens) (UniProt O15111); test: IKK-alpha ProQinase selectivity panel; settings: Compound concentration 1.0 uM
[20] = target: Tyrosine-protein kinase ABL2 (Homo sapiens) (UniProt P42684); test: ABL2 ProQinase selectivity panel; settings: Compound concentration 1.0 uM
[21] = system: Epidermal growth factor receptor (Homo sapiens), P00533 [UNDEFINED MUTATION]; test: EGF-R d746-750 ProQinase selectivity panel; settings: Compound concentration 1.0 uM
[22] = target: Serine/threonine-protein kinase TAO3 (Homo sapiens) (UniProt Q9H2K8); test: TAOK3 ProQinase selectivity panel; settings: Compound concentration 1.0 uM
[23] = target: Alpha-2A adrenergic receptor (Homo sapiens) (UniProt P08913); settings: Compound concentration 10.0 uM
[24] = target: Vascular endothelial growth factor receptor 3 (Homo sapiens) (UniProt P35916); test: VEGF-R3 ProQinase selectivity panel; settings: Compound concentration 1.0 uM
[25] = target: PAS domain-containing serine/threonine-protein kinase (Homo sapiens) (UniProt Q96RG2); test: PASK ProQinase selectivity panel; settings: Compound concentration 1.0 uM
[26] = target: G protein-coupled receptor kinase 5 (Homo sapiens) (UniProt P34947); test: GRK5 ProQinase selectivity panel; settings: Compound concentration 1.0 uM
[27] = target: Serine/threonine-protein kinase PAK 6 (Homo sapiens) (UniProt Q9NQU5); test: PAK6 ProQinase selectivity panel; settings: Compound concentration 1.0 uM
[28] = target: Bone morphogenetic protein receptor type-1A (Homo sapiens) (UniProt P36894); test: BMPR1A ProQinase selectivity panel; settings: Compound concentration 1.0 uM
[29] = target: Tyrosine-protein kinase Yes (Homo sapiens) (UniProt P07947); test: YES ProQinase selectivity panel; settings: Compound concentration 1.0 uM
[30] = target: Mitogen-activated protein kinase 12 (Homo sapiens) (UniProt P53778); test: p38-gamma ProQinase selectivity panel; settings: Compound concentration 1.0 uM
[31] = target: TGF-beta receptor type-1 (Homo sapiens) (UniProt P36897); test: TGFB-R1 ProQinase selectivity panel; settings: Compound concentration 1.0 uM
[32] = target: Maternal embryonic leucine zipper kinase (Homo sapiens) (UniProt Q14680); test: MELK ProQinase selectivity panel; settings: Compound concentration 1.0 uM
[33] = target: Sodium-dependent dopamine transporter (Homo sapiens, UniProt Q01959); settings: Compound concentration 10.0 uM
[34] = target: TGF-beta receptor type-2 (Homo sapiens) (UniProt P37173); test: TGFB-R2 ProQinase selectivity panel; settings: Compound concentration 1.0 uM
[35] = target: Serine/threonine-protein kinase 33 (Homo sapiens) (UniProt Q9BYT3); test: STK33 ProQinase selectivity panel; settings: Compound concentration 1.0 uM
[36] = target: Glycogen synthase kinase-3 alpha (Homo sapiens) (UniProt P49840); test: GSK3-alpha ProQinase selectivity panel; settings: Compound concentration 1.0 uM
[37] = target: Ephrin type-A receptor 7 (Homo sapiens) (UniProt Q15375); test: EPHA7 ProQinase selectivity panel; settings: Compound concentration 1.0 uM
[38] = target: MAP kinase-interacting serine/threonine-protein kinase 2 (Homo sapiens) (UniProt Q9HBH9); test: MKNK2 ProQinase selectivity panel; settings: Compound concentration 1.0 uM
[39] = target: Myosin light chain kinase (Homo sapiens) (UniProt Q32MK0); test: MYLK3 ProQinase selectivity panel; settings: Compound concentration 1.0 uM
[40] = target: MAP/microtubule affinity-regulating kinase 4 (Homo sapiens) (UniProt Q96L34); test: MARK4 ProQinase selectivity panel; settings: Compound concentration 1.0 uM
[41] = target: Fibroblast growth factor receptor 4 (Homo sapiens) (UniProt P22455); test: FGF-R4 ProQinase selectivity panel; settings: Compound concentration 1.0 uM
[42] = system: Serine/threonine-protein kinase B-raf (Homo sapiens), P15056 [V600E]; test: B-RAF V600E ProQinase selectivity panel; settings: Compound concentration 1.0 uM
[43] = target: Casein kinase I isoform gamma-3 (Homo sapiens) (UniProt Q9Y6M4); test: CK1-gamma3 ProQinase selectivity panel; settings: Compound concentration 1.0 uM
[44] = system: Epidermal growth factor receptor (Homo sapiens), P00533 [G719C]; test: EGF-R G719C ProQinase selectivity panel; settings: Compound concentration 1.0 uM
[45] = target: Serine/threonine-protein kinase Nek1 (Homo sapiens) (UniProt Q96PY6); test: NEK1 ProQinase selectivity panel; settings: Compound concentration 1.0 uM
[46] = target: 5-hydroxytryptamine receptor 6 (Homo sapiens) (UniProt P50406); settings: Compound concentration 10.0 uM
[47] = target: Casein kinase II subunit alpha' (Homo sapiens) (UniProt P19784); test: CK2-alpha2 ProQinase selectivity panel; settings: Compound concentration 1.0 uM
Sequence of Casein kinase II subunit alpha' (Homo sapiens) (P19784 whole entry, looked up): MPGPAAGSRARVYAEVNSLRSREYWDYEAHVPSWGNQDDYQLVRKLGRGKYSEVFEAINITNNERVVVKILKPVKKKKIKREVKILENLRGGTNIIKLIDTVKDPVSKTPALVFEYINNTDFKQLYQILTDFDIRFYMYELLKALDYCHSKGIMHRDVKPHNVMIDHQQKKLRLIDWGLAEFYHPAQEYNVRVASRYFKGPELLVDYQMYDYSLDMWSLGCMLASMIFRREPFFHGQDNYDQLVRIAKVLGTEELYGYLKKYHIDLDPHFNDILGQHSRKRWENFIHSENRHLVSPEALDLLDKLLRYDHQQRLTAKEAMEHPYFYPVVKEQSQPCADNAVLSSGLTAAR

Sequence of 5-hydroxytryptamine receptor 2A (P28223 whole entry): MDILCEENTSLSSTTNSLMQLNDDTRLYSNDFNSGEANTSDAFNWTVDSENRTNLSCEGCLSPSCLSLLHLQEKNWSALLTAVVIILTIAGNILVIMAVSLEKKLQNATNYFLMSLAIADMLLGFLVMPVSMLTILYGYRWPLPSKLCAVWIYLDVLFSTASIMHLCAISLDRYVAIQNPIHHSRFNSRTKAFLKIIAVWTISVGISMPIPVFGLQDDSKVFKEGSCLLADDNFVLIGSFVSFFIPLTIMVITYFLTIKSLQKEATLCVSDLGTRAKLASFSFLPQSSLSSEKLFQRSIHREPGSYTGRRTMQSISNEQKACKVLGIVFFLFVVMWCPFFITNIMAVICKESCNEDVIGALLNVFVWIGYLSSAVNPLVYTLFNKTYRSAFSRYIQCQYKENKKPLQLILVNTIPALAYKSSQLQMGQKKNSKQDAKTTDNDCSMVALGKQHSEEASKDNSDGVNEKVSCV
Sequence of Interleukin-1 receptor-associated kinase 4 (Homo sapiens) (Q9NWZ3 whole entry): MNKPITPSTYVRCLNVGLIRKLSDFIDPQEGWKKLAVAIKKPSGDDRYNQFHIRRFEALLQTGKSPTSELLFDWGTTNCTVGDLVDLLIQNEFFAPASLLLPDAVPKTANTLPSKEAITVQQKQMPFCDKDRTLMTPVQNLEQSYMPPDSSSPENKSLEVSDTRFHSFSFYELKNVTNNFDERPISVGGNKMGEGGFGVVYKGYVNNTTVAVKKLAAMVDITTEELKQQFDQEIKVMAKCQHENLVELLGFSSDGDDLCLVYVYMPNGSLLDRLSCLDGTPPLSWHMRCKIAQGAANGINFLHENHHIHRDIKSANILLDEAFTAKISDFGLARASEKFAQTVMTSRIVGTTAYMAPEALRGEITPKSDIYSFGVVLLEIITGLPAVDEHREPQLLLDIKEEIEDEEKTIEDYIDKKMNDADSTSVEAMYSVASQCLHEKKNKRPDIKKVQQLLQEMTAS
Sequence of 5-hydroxytryptamine receptor 6 (Homo sapiens) (P50406 whole entry): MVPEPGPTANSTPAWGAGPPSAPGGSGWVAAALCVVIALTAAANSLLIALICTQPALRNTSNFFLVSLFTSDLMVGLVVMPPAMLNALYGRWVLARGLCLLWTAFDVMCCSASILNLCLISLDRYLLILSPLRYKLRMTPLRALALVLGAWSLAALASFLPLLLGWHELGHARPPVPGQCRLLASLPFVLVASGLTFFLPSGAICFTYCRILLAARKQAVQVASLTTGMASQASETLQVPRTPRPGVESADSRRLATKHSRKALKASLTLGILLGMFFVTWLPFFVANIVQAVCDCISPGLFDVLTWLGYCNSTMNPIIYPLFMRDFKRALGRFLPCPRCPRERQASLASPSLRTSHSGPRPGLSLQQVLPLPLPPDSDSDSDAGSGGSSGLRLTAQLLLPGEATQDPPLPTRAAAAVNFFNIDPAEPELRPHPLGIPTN
Sequence of Casein kinase I isoform gamma-3 (Homo sapiens) (Q9Y6M4 whole entry, looked up, canonical isoform): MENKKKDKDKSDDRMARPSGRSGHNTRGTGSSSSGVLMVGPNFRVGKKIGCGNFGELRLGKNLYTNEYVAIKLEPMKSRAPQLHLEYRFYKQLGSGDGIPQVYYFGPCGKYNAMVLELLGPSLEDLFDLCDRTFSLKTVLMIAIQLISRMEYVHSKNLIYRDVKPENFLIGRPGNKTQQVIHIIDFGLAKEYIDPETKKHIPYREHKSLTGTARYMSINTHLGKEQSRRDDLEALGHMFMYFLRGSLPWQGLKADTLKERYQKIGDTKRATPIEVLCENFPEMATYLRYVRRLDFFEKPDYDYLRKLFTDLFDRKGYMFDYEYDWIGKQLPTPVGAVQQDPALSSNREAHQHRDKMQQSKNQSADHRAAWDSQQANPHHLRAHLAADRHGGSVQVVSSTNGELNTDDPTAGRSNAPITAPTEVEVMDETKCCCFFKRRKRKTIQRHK
Sequence of NUAK family SNF1-like kinase 2 (Homo sapiens) (Q9H093 whole entry): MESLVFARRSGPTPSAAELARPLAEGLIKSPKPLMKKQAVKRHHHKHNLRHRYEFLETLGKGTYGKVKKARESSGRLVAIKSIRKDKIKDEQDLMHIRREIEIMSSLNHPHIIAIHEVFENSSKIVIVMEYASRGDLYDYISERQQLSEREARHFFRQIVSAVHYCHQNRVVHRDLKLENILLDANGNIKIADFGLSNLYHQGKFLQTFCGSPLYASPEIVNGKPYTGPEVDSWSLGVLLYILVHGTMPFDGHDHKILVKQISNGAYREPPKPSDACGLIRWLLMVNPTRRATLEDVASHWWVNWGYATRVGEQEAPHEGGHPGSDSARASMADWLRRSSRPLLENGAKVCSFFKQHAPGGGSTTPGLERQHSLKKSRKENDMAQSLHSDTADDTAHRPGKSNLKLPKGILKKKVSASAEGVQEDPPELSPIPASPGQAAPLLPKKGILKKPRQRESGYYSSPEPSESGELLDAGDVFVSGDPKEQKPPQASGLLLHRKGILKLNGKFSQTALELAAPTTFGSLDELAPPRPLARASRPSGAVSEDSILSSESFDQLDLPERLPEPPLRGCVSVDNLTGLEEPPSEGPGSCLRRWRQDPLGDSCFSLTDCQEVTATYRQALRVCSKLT
Sequence of Ephrin type-A receptor 7 (Homo sapiens) (Q15375 28-998 limits assumed): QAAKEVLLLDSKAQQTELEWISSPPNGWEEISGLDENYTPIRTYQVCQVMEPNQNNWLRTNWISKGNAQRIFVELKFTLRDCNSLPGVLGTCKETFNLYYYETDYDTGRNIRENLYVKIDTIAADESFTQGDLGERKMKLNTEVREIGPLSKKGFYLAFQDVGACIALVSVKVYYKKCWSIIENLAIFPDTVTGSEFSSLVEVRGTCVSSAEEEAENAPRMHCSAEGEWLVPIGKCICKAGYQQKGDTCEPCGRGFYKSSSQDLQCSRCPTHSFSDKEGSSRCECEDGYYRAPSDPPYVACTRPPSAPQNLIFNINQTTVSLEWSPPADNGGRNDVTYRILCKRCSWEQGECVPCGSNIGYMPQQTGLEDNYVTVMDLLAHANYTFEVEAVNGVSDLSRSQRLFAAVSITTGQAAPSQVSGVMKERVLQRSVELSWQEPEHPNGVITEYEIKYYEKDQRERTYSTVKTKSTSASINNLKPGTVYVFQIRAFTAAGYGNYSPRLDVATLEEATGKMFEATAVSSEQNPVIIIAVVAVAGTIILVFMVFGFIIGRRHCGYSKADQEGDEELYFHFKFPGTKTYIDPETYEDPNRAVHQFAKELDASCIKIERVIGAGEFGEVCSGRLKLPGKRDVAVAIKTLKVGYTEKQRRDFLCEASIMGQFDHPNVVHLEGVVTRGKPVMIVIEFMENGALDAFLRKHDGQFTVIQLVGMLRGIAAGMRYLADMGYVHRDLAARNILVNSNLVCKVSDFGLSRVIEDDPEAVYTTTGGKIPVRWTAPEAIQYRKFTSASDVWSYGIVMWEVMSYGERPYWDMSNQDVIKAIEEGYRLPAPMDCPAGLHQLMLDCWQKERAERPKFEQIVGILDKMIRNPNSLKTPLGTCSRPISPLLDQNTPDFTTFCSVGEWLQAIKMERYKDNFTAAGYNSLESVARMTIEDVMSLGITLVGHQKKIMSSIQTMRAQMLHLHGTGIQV
Sequence of Epidermal growth factor receptor (Homo sapiens), P00533 [UNDEFINED MUTATION] (P00533 whole entry, looked up, change not shown): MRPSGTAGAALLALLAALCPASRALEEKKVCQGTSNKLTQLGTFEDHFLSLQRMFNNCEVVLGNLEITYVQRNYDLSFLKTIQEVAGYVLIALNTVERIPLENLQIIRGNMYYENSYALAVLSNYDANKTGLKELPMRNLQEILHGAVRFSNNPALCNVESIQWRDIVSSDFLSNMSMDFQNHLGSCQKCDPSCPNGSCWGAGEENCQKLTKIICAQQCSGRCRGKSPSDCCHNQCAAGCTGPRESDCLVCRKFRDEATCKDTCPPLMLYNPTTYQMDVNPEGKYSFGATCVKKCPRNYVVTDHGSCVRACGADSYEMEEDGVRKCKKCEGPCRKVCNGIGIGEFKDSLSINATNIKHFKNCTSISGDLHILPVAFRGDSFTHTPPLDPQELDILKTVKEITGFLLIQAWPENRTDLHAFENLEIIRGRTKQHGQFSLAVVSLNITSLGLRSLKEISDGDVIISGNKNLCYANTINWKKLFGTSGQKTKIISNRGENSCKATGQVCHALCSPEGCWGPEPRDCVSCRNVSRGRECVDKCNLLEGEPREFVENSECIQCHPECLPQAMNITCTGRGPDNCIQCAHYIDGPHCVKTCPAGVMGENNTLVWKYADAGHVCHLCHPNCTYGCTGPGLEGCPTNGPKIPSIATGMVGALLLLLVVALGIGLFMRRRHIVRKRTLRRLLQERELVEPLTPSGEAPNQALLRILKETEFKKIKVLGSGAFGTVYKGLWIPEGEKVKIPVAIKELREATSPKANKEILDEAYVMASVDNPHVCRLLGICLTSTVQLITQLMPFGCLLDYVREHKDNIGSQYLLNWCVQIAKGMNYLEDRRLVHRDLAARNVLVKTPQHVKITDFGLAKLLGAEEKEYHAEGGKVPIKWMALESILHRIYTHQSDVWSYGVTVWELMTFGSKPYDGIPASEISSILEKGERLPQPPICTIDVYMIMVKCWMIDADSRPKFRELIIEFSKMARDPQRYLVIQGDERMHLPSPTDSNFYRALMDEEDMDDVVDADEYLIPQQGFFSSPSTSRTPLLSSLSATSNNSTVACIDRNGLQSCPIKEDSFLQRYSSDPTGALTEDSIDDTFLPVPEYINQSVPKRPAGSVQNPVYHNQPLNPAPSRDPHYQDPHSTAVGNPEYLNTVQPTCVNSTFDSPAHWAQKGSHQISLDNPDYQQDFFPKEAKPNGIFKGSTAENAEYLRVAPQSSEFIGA

IC50 [1]: 0.0402 µM (active)
% Residual activity with Skepinone-L [2]: 91%
% Residual activity with Skepinone-L [3]: 106%
% Residual activity with Skepinone-L [4]: 91%
% Residual activity with Skepinone-L [5]: 104%
% Residual activity with Skepinone-L [6]: 102%
% Residual activity with Skepinone-L [7]: 94%
% Residual activity with Skepinone-L [8]: 115%
% Residual activity with Skepinone-L [9]: 99%
% Residual activity with Skepinone-L [10]: 80%
Ki ([11]; read-out: Ki): 3.71 µM
Ki ([11]; read-out: pKi (converted)): 3.39 µM
% Residual activity with Skepinone-L [12]: 105%
% Residual activity with Skepinone-L [13]: 100%
% Residual activity with Skepinone-L [14]: 103%
inhibition [15]: 12.8%
% Residual activity with Skepinone-L [16]: 111%
% Residual activity with Skepinone-L [17]: 100%
% Residual activity with Skepinone-L [18]: 101%
% Residual activity with Skepinone-L [19]: 88%
% Residual activity with Skepinone-L [20]: 99%
% Residual activity with Skepinone-L [21]: 100%
% Residual activity with Skepinone-L [22]: 102%
inhibition [23]: 39.6%
% Residual activity with Skepinone-L [24]: 100%
% Residual activity with Skepinone-L [25]: 88%
% Residual activity with Skepinone-L [26]: 121%
% Residual activity with Skepinone-L [27]: 101%
% Residual activity with Skepinone-L [28]: 100%
% Residual activity with Skepinone-L [29]: 119%
% Residual activity with Skepinone-L [30]: 102%
% Residual activity with Skepinone-L [31]: 93%
% Residual activity with Skepinone-L [32]: 81%
inhibition [33]: 81.4%
% Residual activity with Skepinone-L [34]: 77%
% Residual activity with Skepinone-L [35]: 94%
% Residual activity with Skepinone-L [36]: 93%
% Residual activity with Skepinone-L [37]: 109%
% Residual activity with Skepinone-L [38]: 96%
% Residual activity with Skepinone-L [39]: 85%
% Residual activity with Skepinone-L [40]: 96%
% Residual activity with Skepinone-L [41]: 103%
% Residual activity with Skepinone-L [42]: 135%
% Residual activity with Skepinone-L [43]: 95%
% Residual activity with Skepinone-L [44]: 74%
% Residual activity with Skepinone-L [45]: 83%
inhibition [46]: 14.8%
% Residual activity with Skepinone-L [47]: 87%
Compound: O=C1c2ccc(Nc3ccc(F)cc3F)cc2CCc2ccc(OC[C@H](O)CO)cc21 [Skepinone-L]
